Experimental data as given in the NIST ThermoML archive (doi:10.1021/je050034s).

Experiments:
[1] = Molar enthalpy of transition or fusion; conditions: Crystal
[2] = molar heat capacity at saturation pressure

c1ccc(Cc2ccccc2)cc1 [diphenylmethane]
Conditions | mass density [kg/m3] | vapor or sublimation pressure [kPa]
308.14 K, Liquid, Vibrating tube method | 996.7 | –
323.14 K, Liquid, Vibrating tube method | 985.3 | –
329.99 K, Liquid, Inclined piston gauge | – | 0.0261
339.99 K, Liquid, Inclined piston gauge | – | 0.0523
348.13 K, Liquid, Vibrating tube method | 965.6 | –
349.98 K, Liquid, Inclined piston gauge | – | 0.0995
359.97 K, Liquid, Inclined piston gauge | – | 0.1814
369.98 K, Liquid, Inclined piston gauge | – | 0.3181
373.12 K, Liquid, Vibrating tube method | 945.8 | –
379.98 K, Liquid, Inclined piston gauge | – | 0.5378
389.97 K, Liquid, Inclined piston gauge | – | 0.8793
398.12 K, Liquid, Vibrating tube method | 926.1 | –
399.97 K, Liquid, Inclined piston gauge | – | 1.395
408.21 K, Liquid, Twin ebulliometer | – | 2
409.97 K, Liquid, Inclined piston gauge | – | 2.155
414.97 K, Liquid, Inclined piston gauge | – | 2.651
415.11 K, Liquid, Twin ebulliometer | – | 2.666
419.97 K, Liquid, Inclined piston gauge | – | 3.243
423.12 K, Liquid, Vibrating tube method | 905.7 | –
425.34 K, Liquid, Twin ebulliometer | – | 4
432.99 K, Liquid, Twin ebulliometer | – | 5.333
444.38 K, Liquid, Twin ebulliometer | – | 7.999
448.11 K, Liquid, Vibrating tube method | 885.4 | –
452.93 K, Liquid, Twin ebulliometer | – | 10.67
459.84 K, Liquid, Twin ebulliometer | – | 13.33
467.03 K, Liquid, Twin ebulliometer | – | 16.66
473 K, Liquid, Twin ebulliometer | – | 19.93
473.11 K, Liquid, Vibrating tube method | 864.3 | –
480.86 K, Liquid, Twin ebulliometer | – | 25.02
488.78 K, Liquid, Twin ebulliometer | – | 31.17
496.76 K, Liquid, Twin ebulliometer | – | 38.56
498.11 K, Liquid, Vibrating tube method | 842.6 | –
504.79 K, Liquid, Twin ebulliometer | – | 47.37
512.88 K, Liquid, Twin ebulliometer | – | 57.81
521.02 K, Liquid, Twin ebulliometer | – | 70.11
523.11 K, Liquid, Vibrating tube method | 819.2 | –
529.22 K, Liquid, Twin ebulliometer | – | 84.53
537.47 K, Liquid, Twin ebulliometer | – | 101.31
545.78 K, Liquid, Twin ebulliometer | – | 120.78
554.14 K, Liquid, Twin ebulliometer | – | 143.23
562.56 K, Liquid, Twin ebulliometer | – | 169
571.03 K, Liquid, Twin ebulliometer | – | 198.46
579.55 K, Liquid, Twin ebulliometer | – | 231.99
588.13 K, Liquid, Twin ebulliometer | – | 269.98
743.8 K, Gas, DSC | 104.3 | –
754.8 K, Gas, DSC | 148.4 | –
760.6 K, Liquid, DSC | 417.7 | –
767.1 K, Liquid, DSC | 417.5 | –
769.8 K, Liquid, DSC | 397.2 | –
770 K, Gas, DSC | 191.2 | –
775.7 K, Gas, DSC | 220.3 | –
776.5 K, Liquid, DSC | 333.5 | –
777 K, Liquid, DSC | 304.2 | –

Conditions | Molar enthalpy of transition or fusion [kcal/mol] | Triple point temperature [K]
Crystal | – | 298.37
[1] | 4.543 | –

Conditions | Critical temperature [K]
Liquid, DTA | 778

molar heat capacity [J/K/mol], [2]
Conditions | Crystal | Liquid
5 K, Vacuum adiabatic calorimetry | 0.38 | –
5.364 K, Vacuum adiabatic calorimetry | 0.47 | –
6.296 K, Vacuum adiabatic calorimetry | 0.76 | –
7.218 K, Vacuum adiabatic calorimetry | 1.16 | –
8.187 K, Vacuum adiabatic calorimetry | 1.71 | –
9.195 K, Vacuum adiabatic calorimetry | 2.42 | –
10 K, Vacuum adiabatic calorimetry | 3.12 | –
10.21 K, Vacuum adiabatic calorimetry | 3.31 | –
11.33 K, Vacuum adiabatic calorimetry | 4.39 | –
12.6 K, Vacuum adiabatic calorimetry | 5.74 | –
13.99 K, Vacuum adiabatic calorimetry | 7.45 | –
15.53 K, Vacuum adiabatic calorimetry | 9.437 | –
17.24 K, Vacuum adiabatic calorimetry | 11.84 | –
19.13 K, Vacuum adiabatic calorimetry | 14.59 | –
20 K, Vacuum adiabatic calorimetry | 15.87 | –
21.21 K, Vacuum adiabatic calorimetry | 17.66 | –
23.51 K, Vacuum adiabatic calorimetry | 21.15 | –
26.07 K, Vacuum adiabatic calorimetry | 24.97 | –
28.93 K, Vacuum adiabatic calorimetry | 29.09 | –
30 K, Vacuum adiabatic calorimetry | 30.59 | –
32.11 K, Vacuum adiabatic calorimetry | 33.47 | –
35.66 K, Vacuum adiabatic calorimetry | 37.99 | –
39.62 K, Vacuum adiabatic calorimetry | 42.58 | –
40 K, Vacuum adiabatic calorimetry | 43 | –
44.02 K, Vacuum adiabatic calorimetry | 47.26 | –
48.94 K, Vacuum adiabatic calorimetry | 51.94 | –
50 K, Vacuum adiabatic calorimetry | 52.92 | –
50.87 K, Vacuum adiabatic calorimetry | 53.74 | –
52.95 K, Vacuum adiabatic calorimetry | 55.44 | –
54.43 K, Vacuum adiabatic calorimetry | 56.74 | –
55.01 K, Vacuum adiabatic calorimetry | 57.11 | –
57.89 K, Vacuum adiabatic calorimetry | 59.58 | –
59.91 K, Vacuum adiabatic calorimetry | 61.04 | –
60 K, Vacuum adiabatic calorimetry | 61.11 | –
63.59 K, Vacuum adiabatic calorimetry | 63.66 | –
65.43 K, Vacuum adiabatic calorimetry | 65.06 | –
69.82 K, Vacuum adiabatic calorimetry | 68.05 | –
70 K, Vacuum adiabatic calorimetry | 68.16 | –
76.62 K, Vacuum adiabatic calorimetry | 72.36 | –
78.19 K, Vacuum adiabatic calorimetry | 73.39 | –
80 K, Vacuum adiabatic calorimetry | 74.47 | –
81.13 K, Vacuum adiabatic calorimetry | 75.18 | –
84.19 K, Vacuum adiabatic calorimetry | 76.96 | –
85.52 K, Vacuum adiabatic calorimetry | 77.76 | –
88.47 K, Vacuum adiabatic calorimetry | 79.51 | –
90 K, Vacuum adiabatic calorimetry | 80.38 | –
96.79 K, Vacuum adiabatic calorimetry | 84.28 | –
100 K, Vacuum adiabatic calorimetry | 86.12 | –
105.91 K, Vacuum adiabatic calorimetry | 89.5 | –
115.55 K, Vacuum adiabatic calorimetry | 94.96 | –
120 K, Vacuum adiabatic calorimetry | 97.5 | –
125.31 K, Vacuum adiabatic calorimetry | 100.54 | –
135.12 K, Vacuum adiabatic calorimetry | 106.25 | –
140 K, Vacuum adiabatic calorimetry | 109.13 | –
145.06 K, Vacuum adiabatic calorimetry | 112.15 | –
155.05 K, Vacuum adiabatic calorimetry | 118.34 | –
160 K, Vacuum adiabatic calorimetry | 121.47 | –
165.03 K, Vacuum adiabatic calorimetry | 124.68 | –
175.01 K, Vacuum adiabatic calorimetry | 131.04 | –
180 K, Vacuum adiabatic calorimetry | 134.55 | –
185 K, Vacuum adiabatic calorimetry | 138.14 | –
195.05 K, Vacuum adiabatic calorimetry | 145.11 | –
200 K, Vacuum adiabatic calorimetry | 148.68 | –
205.14 K, Vacuum adiabatic calorimetry | 152.48 | –
215.25 K, Vacuum adiabatic calorimetry | 160.17 | –
220 K, Vacuum adiabatic calorimetry | 163.86 | –
225.34 K, Vacuum adiabatic calorimetry | 168.15 | –
235.38 K, Vacuum adiabatic calorimetry | 176.42 | –
240 K, Vacuum adiabatic calorimetry | 180.3 | –
245.37 K, Vacuum adiabatic calorimetry | 185.01 | –
246.51 K, Vacuum adiabatic calorimetry | 185.99 | –
255.32 K, Vacuum adiabatic calorimetry | 193.89 | –
257.33 K, Vacuum adiabatic calorimetry | 195.76 | –
260 K, Vacuum adiabatic calorimetry | 198.12 | –
268.6 K, Vacuum adiabatic calorimetry | 206.43 | –
279.29 K, Vacuum adiabatic calorimetry | 217.16 | –
280 K, Vacuum adiabatic calorimetry | 217.44 | –
289.28 K, Vacuum adiabatic calorimetry | 229.55 | –
289.37 K, Vacuum adiabatic calorimetry | 229.9 | –
298.15 K, Vacuum adiabatic calorimetry | 236.26 | 267.36
298.37 K, Vacuum adiabatic calorimetry | 236.5 | 267.48
300 K, Vacuum adiabatic calorimetry | – | 268.32
303.38 K, Vacuum adiabatic calorimetry | – | 270.07
305.34 K, Vacuum adiabatic calorimetry | – | 270.99
305.59 K, Vacuum adiabatic calorimetry | – | 271.14
313.82 K, Vacuum adiabatic calorimetry | – | 275.26
320 K, Vacuum adiabatic calorimetry | – | 278.43
325.59 K, Vacuum adiabatic calorimetry | – | 281.23
339.57 K, Vacuum adiabatic calorimetry | – | 288.4
340 K, Vacuum adiabatic calorimetry | – | 288.62
356.66 K, Vacuum adiabatic calorimetry | – | 297.31
360 K, Vacuum adiabatic calorimetry | – | 299.1
373.63 K, Vacuum adiabatic calorimetry | – | 306.34
380 K, Vacuum adiabatic calorimetry | – | 309.56
390.49 K, Vacuum adiabatic calorimetry | – | 314.87
400 K, Vacuum adiabatic calorimetry | – | 319.92
407.29 K, Vacuum adiabatic calorimetry | – | 323.8
420 K, Vacuum adiabatic calorimetry | – | 330.39
424.08 K, Vacuum adiabatic calorimetry | – | 332.47
438.41 K, Vacuum adiabatic calorimetry | – | 339.81
440 K, Vacuum adiabatic calorimetry | – | 340.5
460 K, Vacuum adiabatic calorimetry | – | 349.5
480 K, Small sample (50 mg) DSC | – | 358.67
500 K, Small sample (50 mg) DSC | – | 367.6
520 K, Small sample (50 mg) DSC | – | 376.3
540 K, Small sample (50 mg) DSC | – | 384.6
560 K, Small sample (50 mg) DSC | – | 392.7
580 K, Small sample (50 mg) DSC | – | 400.5
600 K, Small sample (50 mg) DSC | – | 407.9
620 K, Small sample (50 mg) DSC | – | 415.1
640 K, Small sample (50 mg) DSC | – | 422.3
660 K, Small sample (50 mg) DSC | – | 429.6
680 K, Small sample (50 mg) DSC | – | 437.4
700 K, Small sample (50 mg) DSC | – | 446.9
